{
  "source": "PubChem BioAssay AID1918942",
  "about": "(Molecular Pharmacology Branch, DTP, NCI, 2023)",
  "tested_on": "743489-274-T-PDC complex spheroid viability",
  "assay": "Anticancer human tumor 743489-274-T-PDC patient-derived renal cell carcinoma cell line growth inhibition",
  "settings": "for IC50: curve of first compound; for viability, T/C: stronger effect = lower value",
  "in_short": "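Drug combinations with the LSD1 inhibitor iadademstat tested on tumor cells co-cultured as spheroids with endothelial cells and mesenchymal stem cells. Concentrations descended in half-log increments from clinical Cmax or 10 microM.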",
  "key": {"[1]": {"settings": "second compound 0.1 µM, first compound 0.000316 µM"}, "[2]": {"settings": "second compound 0.1 µM, first compound 0.001 µM"}, "[3]": {"settings": "second compound 0.1 µM, first compound 0.00316 µM"}, "[4]": {"settings": "second compound 0.1 µM, first compound 0.01 µM"}, "[5]": {"settings": "second compound 0.1 µM, first compound 0.0316 µM"}, "[6]": {"settings": "second compound 0.1 µM, first compound 0.1 µM"}, "[7]": {"settings": "second compound 0.316 µM, first compound 0.000316 µM"}, "[8]": {"settings": "second compound 0.316 µM, first compound 0.001 µM"}, "[9]": {"settings": "second compound 0.316 µM, first compound 0.00316 µM"}, "[10]": {"settings": "second compound 0.316 µM, first compound 0.01 µM"}, "[11]": {"settings": "second compound 0.316 µM, first compound 0.0316 µM"}, "[12]": {"settings": "second compound 0.316 µM, first compound 0.1 µM"}, "[13]": {"settings": "second compound 1 µM, first compound 0.000316 µM"}, "[14]": {"settings": "second compound 1 µM, first compound 0.001 µM"}, "[15]": {"settings": "second compound 1 µM, first compound 0.00316 µM"}, "[16]": {"settings": "second compound 1 µM, first compound 0.01 µM"}, "[17]": {"settings": "second compound 1 µM, first compound 0.0316 µM"}, "[18]": {"settings": "second compound 1 µM, first compound 0.1 µM"}, "[19]": {"settings": "second compound 3.16 µM, first compound 0.000316 µM"}, "[20]": {"settings": "second compound 3.16 µM, first compound 0.001 µM"}, "[21]": {"settings": "second compound 3.16 µM, first compound 0.00316 µM"}, "[22]": {"settings": "second compound 3.16 µM, first compound 0.01 µM"}, "[23]": {"settings": "second compound 3.16 µM, first compound 0.0316 µM"}, "[24]": {"settings": "second compound 3.16 µM, first compound 0.1 µM"}, "[25]": {"settings": "second compound 10 µM, first compound 0.000316 µM"}, "[26]": {"settings": "second compound 10 µM, first compound 0.001 µM"}, "[27]": {"settings": "second compound 10 µM, first compound 0.00316 µM"}, "[28]": {"settings": "second compound 10 µM, first compound 0.01 µM"}, "[29]": {"settings": "second compound 10 µM, first compound 0.0316 µM"}, "[30]": {"settings": "second compound 10 µM, first compound 0.1 µM"}},
  "data": [
    {"compound": "CC(C)CC(NC(=O)C(Cc1ccccc1)NC(=O)c1cnccn1)B(O)O", "note": "(stereo not given) + NC1CCC(NC2CC2c2ccccc2)CC1;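 also: spheroids exposed to compounds for 7 days before readout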;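 as to viability, T/C: 100% = DMSO vehicle control wells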", "values": [
      {"measurement": "IC50", "setting": "second compound 0.1 µM", "result": 7.65, "unit": "nM"},
      {"measurement": "IC50", "setting": "second compound 0.316 µM", "result": 7.9, "unit": "nM"},
      {"measurement": "IC50", "setting": "second compound 1 µM", "result": 7.38, "unit": "nM"},
      {"measurement": "IC50", "setting": "second compound 3.16 µM", "result": 8.58, "unit": "nM"},
      {"measurement": "IC50", "setting": "second compound 10 µM", "result": 8.22, "unit": "nM"},
      {"measurement": "viability, T/C", "setting": "[1]", "result": 115, "unit": "%"},
      {"measurement": "viability, T/C", "setting": "[2]", "result": 100, "unit": "%"},
      {"measurement": "viability, T/C", "setting": "[3]", "result": 121, "unit": "%"},
      {"measurement": "viability, T/C", "setting": "[4]", "result": 33.7, "unit": "%"},
      {"measurement": "viability, T/C", "setting": "[5]", "result": 29.6, "unit": "%"},
      {"measurement": "viability, T/C", "setting": "[6]", "result": 30.3, "unit": "%"},
      {"measurement": "viability, T/C", "setting": "[7]", "result": 119, "unit": "%"},
      {"measurement": "viability, T/C", "setting": "[8]", "result": 109, "unit": "%"},
      {"measurement": "viability, T/C", "setting": "[9]", "result": 115, "unit": "%"},
      {"measurement": "viability, T/C", "setting": "[10]", "result": 33.4, "unit": "%"},
      {"measurement": "viability, T/C", "setting": "[11]", "result": 19.1, "unit": "%"},
      {"measurement": "viability, T/C", "setting": "[12]", "result": 26.7, "unit": "%"},
      {"measurement": "viability, T/C", "setting": "[13]", "result": 100, "unit": "%"},
      {"measurement": "viability, T/C", "setting": "[14]", "result": 108, "unit": "%"},
      {"measurement": "viability, T/C", "setting": "[15]", "result": 113, "unit": "%"},
      {"measurement": "viability, T/C", "setting": "[16]", "result": 36.8, "unit": "%"},
      {"measurement": "viability, T/C", "setting": "[17]", "result": 23.7, "unit": "%"},
      {"measurement": "viability, T/C", "setting": "[18]", "result": 28.1, "unit": "%"},
      {"measurement": "viability, T/C", "setting": "[19]", "result": 122, "unit": "%"},
      {"measurement": "viability, T/C", "setting": "[20]", "result": 103, "unit": "%"},
      {"measurement": "viability, T/C", "setting": "[21]", "result": 113, "unit": "%"},
      {"measurement": "viability, T/C", "setting": "[22]", "result": 40.3, "unit": "%"},
      {"measurement": "viability, T/C", "setting": "[23]", "result": 22.3, "unit": "%"},
      {"measurement": "viability, T/C", "setting": "[24]", "result": 38.3, "unit": "%"},
      {"measurement": "viability, T/C", "setting": "[25]", "result": 117, "unit": "%"},
      {"measurement": "viability, T/C", "setting": "[26]", "result": 119, "unit": "%"},
      {"measurement": "viability, T/C", "setting": "[27]", "result": 123, "unit": "%"},
      {"measurement": "viability, T/C", "setting": "[28]", "result": 35.8, "unit": "%"},
      {"measurement": "viability, T/C", "setting": "[29]", "result": 22.1, "unit": "%"},
      {"measurement": "viability, T/C", "setting": "[30]", "result": 35.5, "unit": "%"}
    ]},
    {"compound": "CC(C)CC(NC(=O)CNC(=O)c1cc(Cl)ccc1Cl)B1OC(=O)CC(CC(=O)O)(C(=O)O)O1", "note": "(stereo not given) + NC1CCC(NC2CC2c2ccccc2)CC1", "values": [
      {"measurement": "IC50", "setting": "second compound 0.1 µM", "result": "> 100", "unit": "nM"},
      {"measurement": "IC50", "setting": "second compound 0.316 µM", "result": 92.5, "unit": "nM"},
      {"measurement": "IC50", "setting": "second compound 1 µM", "result": "> 100", "unit": "nM"},
      {"measurement": "IC50", "setting": "second compound 3.16 µM", "result": "> 100", "unit": "nM"},
      {"measurement": "IC50", "setting": "second compound 10 µM", "result": 86.5, "unit": "nM"},
      {"measurement": "viability, T/C", "setting": "[1]", "result": 95.9, "unit": "%"},
      {"measurement": "viability, T/C", "setting": "[2]", "result": 105, "unit": "%"},
      {"measurement": "viability, T/C", "setting": "[3]", "result": 109, "unit": "%"},
      {"measurement": "viability, T/C", "setting": "[4]", "result": 80.4, "unit": "%"},
      {"measurement": "viability, T/C", "setting": "[5]", "result": 72.6, "unit": "%"},
      {"measurement": "viability, T/C", "setting": "[6]", "result": 60.7, "unit": "%"},
      {"measurement": "viability, T/C", "setting": "[7]", "result": 119, "unit": "%"},
      {"measurement": "viability, T/C", "setting": "[8]", "result": 123, "unit": "%"},
      {"measurement": "viability, T/C", "setting": "[9]", "result": 108, "unit": "%"},
      {"measurement": "viability, T/C", "setting": "[10]", "result": 80.5, "unit": "%"},
      {"measurement": "viability, T/C", "setting": "[11]", "result": 79.8, "unit": "%"},
      {"measurement": "viability, T/C", "setting": "[12]", "result": 46.6, "unit": "%"},
      {"measurement": "viability, T/C", "setting": "[13]", "result": 120, "unit": "%"},
      {"measurement": "viability, T/C", "setting": "[14]", "result": 120, "unit": "%"},
      {"measurement": "viability, T/C", "setting": "[15]", "result": 108, "unit": "%"},
      {"measurement": "viability, T/C", "setting": "[16]", "result": 98.1, "unit": "%"},
      {"measurement": "viability, T/C", "setting": "[17]", "result": 78.4, "unit": "%"},
      {"measurement": "viability, T/C", "setting": "[18]", "result": 51.9, "unit": "%"},
      {"measurement": "viability, T/C", "setting": "[19]", "result": 104, "unit": "%"},
      {"measurement": "viability, T/C", "setting": "[20]", "result": 113, "unit": "%"},
      {"measurement": "viability, T/C", "setting": "[21]", "result": 105, "unit": "%"},
      {"measurement": "viability, T/C", "setting": "[22]", "result": 89.1, "unit": "%"},
      {"measurement": "viability, T/C", "setting": "[23]", "result": 92.6, "unit": "%"},
      {"measurement": "viability, T/C", "setting": "[24]", "result": 48.9, "unit": "%"},
      {"measurement": "viability, T/C", "setting": "[25]", "result": 134, "unit": "%"},
      {"measurement": "viability, T/C", "setting": "[26]", "result": 107, "unit": "%"},
      {"measurement": "viability, T/C", "setting": "[27]", "result": 100, "unit": "%"},
      {"measurement": "viability, T/C", "setting": "[28]", "result": 100, "unit": "%"},
      {"measurement": "viability, T/C", "setting": "[29]", "result": 76.6, "unit": "%"},
      {"measurement": "viability, T/C", "setting": "[30]", "result": 43.9, "unit": "%"}
    ]}
  ]
}
